Assay results as given in paper PMC7010297, “How the initiating ribosome copes with ppGpp to translate mRNAs” (PLoS Biology, 2020).
Where “and” joins values, the source holds several entries; their conditions need not be identical. Equal values may be shown once. Read-outs that look alike come from different tables or passages of the source.

Experiments:
[1] = biological target: T1, 70S pre-IC (50S joining to 30S IC) (Escherichia coli, UniProt P0A705); assay: 70S pre-IC formation by light scattering, stopped-flow; format: biochemical; set-up: K1, best-fit value / k2, best-fit value: unit not given here; settings: for A0, best-fit value / K1, best-fit value / k2, best-fit value: fit Y=A0+A1*exp(-K1*x)+k2*x; for kfast (s-1) Avg: light scattering
T1 construct: 6xHis (N); made in house
Protocol: (§1) Continuous lines indicate nonlinear regression fittings with a quadratic equation. Three measurements were performed; mean and standard deviation are plotted (S1 Data). (B) as (A) to measure the concentration dependence for each tested guanosine nucleotide at constant IF2 (1 μM). […] Continuous lines show best fits using exponential functions. (D) Formation of 70S IC as measured by Bpy-tRNAi accommodation in the P site of the ribosome; 0.1 μM 30S ICs were formed with Bpy-tRNAi and rapidly mixed with 0.3 μM 50S subunits on a stopped-flow apparatus as described in [14]. Colors are as in (C). Continuous lines show best fits using an exponential function for a single reaction step. Each stopped-flow trace results from the mean of 5 to 7 replicates.
(A) Scheme of 70S IC formation. […] Time traces were analyzed by nonlinear regression with exponential terms. […] Formation of 70S IC, as measured by Bpy-tRNAi accommodation in the absence (F) or presence of 200 μM ppGpp (G). Time traces were analyzed by nonlinear regression with one exponential term. […] Continuous lines show best fits using an exponential function for a single reaction step. All time traces are mean values of 5 to 10 replicates. Bar graphs show mean and standard errors (error bars) derived from the nonlinear regression fitting (D,E,H,I) (S1 Data).
To measure 70S pre-IC formation, a SX-20 stopped-flow instrument (Applied Photophysics, Leatherhead, UK) was set up for LS recording with an excitation wavelength of 430 nm. Scattered light was measured at an angle of 90° without a filter. Pseudo first-order conditions were approximated by using ≥3-fold excess of 50S subunits over 30S ICs; 0.2 μM 30S ICs were rapidly mixed in the instrument with 0.6 μM 50S at 25 °C. Bpy-tRNAi accommodation was measured essentially as described elsewhere. Briefly, 0.2 μM 30S ICs were formed using Bpy-tRNAi and rapidly mixed with 0.6 μM 50S at 25 °C. Fluorescence was excited at 470 nm and measured after a 495-nm longpass filter. Individual traces (6–11 traces) were averaged, and the resulting kinetic curve was approximated by single (F = A0 + A1*exp (-kapp1*t)) or double (F = A0 + A1*exp (-kapp1*t) + A2*exp (-kapp2*t)) exponential fit using Graphpad Prism 6.0 software (GraphPad, San Diego, California).

30S IC = 30S IC (Escherichia coli, UniProt P0A705); assay: ppGpp tolerance of 30S IC formation by MST; format: binding; set-up: 6xHis (N); made in house
Protocol: Fig 7 SETIs and ppGpp tolerance. (A) Translation initiation efficiency as a function of mRNAs along five steps of transition from NS to S conditions. […] Symbols and error bars represent averages of three replicates and standard deviations, respectively (S1 Data). (C) Comparison of ppGpp tolerance as calculated from the ratio of translation initiation efficiencies found in the presence of 0.2 mM ppGpp over the efficiencies obtained in the absence of the alarmone (S1 Data). […] All 30S IC components are as in Fig 1. Dashed line indicates the average tolerance of all mRNAs lacking the SETI element.

[2] = biological target: T2, 30S IC (30S-bound IF2, Bpy-tRNAi) (Escherichia coli, UniProt P0A705); assay: 30S IC formation measured by MST at increasing concentrations of IF2 with guanosine nucleotides; format: binding; settings: Fig 2A
T2 construct: 6xHis (N); made in house
Text: To monitor the interaction of initiator tRNA and 30S ribosomal subunits, we used Microscale Thermophoresis (MST) with a fluorescently labelled initiator tRNA (Bpy-tRNAi) (Fig 1B). MST allows to measure fluorescence in a constrained space. Changes on the readout derive from molecular drifts resulting from small thermal equilibrium perturbations. Upon equilibrium perturbations, the patterns of Bpy-tRNAi migration away from the observation space are related to bound and unbound states (Fig 1B). […] On the contrary, a decrease in thermophoresis indicated the dissociation of Bpy-tRNAi. The relation between fluorescence measured at both equilibriums (Ff to Fi, after and prior to the perturbation, respectively) as a function of ligand concentration allowed to determine dissociation constants of the interaction (Fig 1C).
as §1

IF2 = biological target: T3, IF2 (Escherichia coli, UniProt P0A705); assay: IF2-Bpy-tRNAi-GNP ternary complex formation by MST; format: binding; settings: S2A Fig
T3 construct: 6xHis (N); made in house
Protocol: Supplementary file pbio.3000593.s002.pdf: S2 Fig IF2-Bpy-tRNAi complex formation as a function of guanosine nucleotides. (A) IF2 concentration dependencies for Bpy-tRNAi binding in the presence of 0.5 mM of the indicated guanosine nucleotides to build IF2-tRNA-GNP ternary complexes (TCs). […] Three to five measurements were performed; mean and standard deviation are plotted (S1 Data). […] (PDF) Click here for additional data file.

T1 sequence (P0A705 whole entry, looked up): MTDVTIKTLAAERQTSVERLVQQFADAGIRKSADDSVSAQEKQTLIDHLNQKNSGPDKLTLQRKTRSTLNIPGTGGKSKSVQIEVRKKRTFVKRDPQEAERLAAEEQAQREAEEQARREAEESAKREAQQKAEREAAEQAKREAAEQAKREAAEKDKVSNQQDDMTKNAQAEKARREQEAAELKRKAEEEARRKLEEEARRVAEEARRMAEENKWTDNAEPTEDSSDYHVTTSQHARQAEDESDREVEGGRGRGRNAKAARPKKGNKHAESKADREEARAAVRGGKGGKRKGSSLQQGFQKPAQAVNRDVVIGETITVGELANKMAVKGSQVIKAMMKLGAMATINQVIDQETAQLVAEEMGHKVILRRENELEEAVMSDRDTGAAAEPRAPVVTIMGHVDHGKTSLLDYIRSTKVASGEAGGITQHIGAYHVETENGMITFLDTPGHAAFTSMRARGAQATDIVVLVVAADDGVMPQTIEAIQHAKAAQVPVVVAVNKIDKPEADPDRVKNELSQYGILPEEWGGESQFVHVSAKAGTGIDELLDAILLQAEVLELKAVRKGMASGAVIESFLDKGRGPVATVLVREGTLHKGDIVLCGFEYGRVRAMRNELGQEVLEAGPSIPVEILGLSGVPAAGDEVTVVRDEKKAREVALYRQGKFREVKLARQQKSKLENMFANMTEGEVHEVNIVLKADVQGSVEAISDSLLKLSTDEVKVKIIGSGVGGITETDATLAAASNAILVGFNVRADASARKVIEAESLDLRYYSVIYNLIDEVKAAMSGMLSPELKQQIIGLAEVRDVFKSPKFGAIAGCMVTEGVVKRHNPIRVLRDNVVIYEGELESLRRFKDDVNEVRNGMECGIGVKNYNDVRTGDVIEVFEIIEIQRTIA
T3 sequence (P0A705 whole entry): as the sequence (P0A705 whole entry, looked up) above
30S IC, sequence (P0A705 whole entry, looked up): as above
T2 sequence (P0A705 whole entry, looked up): as above

Question: `Nc1nc2c(ncn2[C@@H]2O[C@H](COP(=O)(O)OP(=O)(O)O)[C@@H](OP(=O)(O)OP(=O)(O)O)[C@H]2O)c(=O)[nH]1` [ppGpp] was tested. Which “efficiency (amplitude) of 70S pre-IC formation” value ([1]; 0.2 mM nucleotide, no GTP) did it give?
Answer: reduced efficiencies

Question: And the “rapid 70S pre-IC formation in the absence of GTP” value ([1]; 0.2 mM nucleotide, noncompetitive (S6 Fig))?
Answer: negligible

Question: What about the “A0, best-fit value” ([1]; mInfA) of the same molecule?
Answer: 1.01

Question: And the “K1, best-fit value” ([1]; mInfA)?
Answer: 1.203 and 1.20

Question: And the “k2, best-fit value” ([1]; mInfA)?
Answer: 0.0007 and 0.000671

Question: And the “A0, best-fit value” ([1]; mMF1)?
Answer: 1.01

Question: What about the “K1, best-fit value” ([1]; mMF1) of the same molecule?
Answer: 2.759 and 2.76

Question: And the “k2, best-fit value” ([1]; mMF1)?
Answer: 0.0007 and 0.000692

Question: What about the “LS amplitude (a.u.) Avg” value ([1]; mRNA mInfA) of the same molecule?
Answer: 0.011 a.u.

Question: What about the “kfast (s-1) Avg” value ([1]; mRNA mInfA) of the same molecule?
Answer: 1.20 s⁻¹

Question: And the “LS amplitude (a.u.) Avg” value ([1]; mRNA mMF1)?
Answer: 0.012 a.u.

Question: What about the “kfast (s-1) Avg” value ([1]; mRNA mMF1) of the same molecule?
Answer: 2.76 s⁻¹

Question: And the “LS amplitude (a.u.) Avg” value ([1]; mRNA mTufA)?
Answer: 0.035 a.u.

Question: What about the “kfast (s-1) Avg” value ([1]; mRNA mTufA) of the same molecule?
Answer: 3.76 s⁻¹

Question: And the “A0, best-fit value” ([1]; mTufA)?
Answer: 1.03

Question: What about the “K1, best-fit value” ([1]; mTufA) of the same molecule?
Answer: 3.763 and 3.76

Question: And the “k2, best-fit value” ([1]; mTufA)?
Answer: 0.0010 and 0.00104

Question: And the Ki (30S IC; mRNA mInfA, read-out: 30S IC Ki (μM), replicates)?
Answer: 0.598 µM and 0.576 µM and 0.587 µM

Question: What about the Ki (30S IC; mRNA mInfA, read-out: 30S IC Ki Average) of the same molecule?
Answer: 0.587 µM

Question: And the Ki (30S IC; mRNA mTufA, read-out: 30S IC Ki (μM), replicates)?
Answer: 2.19 µM and 2.21 µM and 2.22 µM

Question: And the Ki (30S IC; mRNA mTufA, read-out: 30S IC Ki Average)?
Answer: 2.21 µM

Question: And the “MST Replicates (a.u.)” value ([2]; IF2 0.16 µM, in the presence of the nucleotide)?
Answer: 941.10 a.u. and 944.88 a.u. and 948.29 a.u.

Question: And the “MST Average” value ([2]; IF2 0.31 µM)?
Answer: 944.83 a.u.

Question: And the “MST Replicates (a.u.)” value ([2]; IF2 0.31 µM)?
Answer: 937.79 a.u. and 942.65 a.u. and 947.01 a.u.

Question: And the “MST Average” value ([2]; IF2 0.63 µM)?
Answer: 941.79 a.u.

Question: What about the “MST Replicates (a.u.)” value ([2]; IF2 0.63 µM) of the same molecule?
Answer: 935.48 a.u. and 940.20 a.u. and 943.38 a.u.

Question: And the “MST Average” value ([2]; IF2 1.25 µM)?
Answer: 942.39 a.u.

Question: And the “MST Replicates (a.u.)” value ([2]; IF2 1.25 µM)?
Answer: 936.09 a.u. and 941.10 a.u. and 943.68 a.u.

Question: And the “MST Average” value ([2]; IF2 2.50 µM)?
Answer: 949.26 a.u.

Question: What about the “MST Replicates (a.u.)” value ([2]; IF2 2.50 µM) of the same molecule?
Answer: 943.13 a.u. and 948.21 a.u. and 950.30 a.u.

Question: What about the “MST Average” value ([2]; IF2 5.00 µM) of the same molecule?
Answer: 968.50 a.u.

Question: And the “MST Replicates (a.u.)” value ([2]; IF2 5.00 µM)?
Answer: 965.17 a.u. and 967.18 a.u. and 969.82 a.u.

Question: And the “MST Average” value (IF2; IF2 0.08 µM)?
Answer: 943.56 a.u.

Question: And the “MST Replicates” value (IF2; IF2 0.08 µM)?
Answer: 950.05 a.u. and 945.75 a.u. and 934.87 a.u.

Question: And the “MST Average” value (IF2; IF2 0.16 µM)?
Answer: 943.40 a.u.

Question: And the “MST Replicates” value (IF2; IF2 0.16 µM)?
Answer: 949.30 a.u. and 935.29 a.u. and 945.62 a.u.

Question: And the “MST Average” value (IF2; IF2 0.31 µM)?
Answer: 945.38 a.u.

Question: And the “MST Replicates” value (IF2; IF2 0.31 µM)?
Answer: 948.56 a.u. and 936.80 a.u. and 950.79 a.u.

Question: And the “MST Average” value (IF2; IF2 0.63 µM)?
Answer: 945.13 a.u.

Question: And the “MST Replicates” value (IF2; IF2 0.63 µM)?
Answer: 936.31 a.u. and 947.81 a.u. and 951.27 a.u.

Question: And the “MST Average” value (IF2; IF2 1.25 µM)?
Answer: 946.96 a.u.

Question: And the “MST Replicates” value (IF2; IF2 1.25 µM)?
Answer: 952.23 a.u. and 948.54 a.u. and 940.12 a.u.

Question: And the “MST Average” value (IF2; IF2 2.50 µM)?
Answer: 951.73 a.u.

Question: And the “MST Replicates” value (IF2; IF2 2.50 µM)?
Answer: 945.20 a.u. and 956.43 a.u. and 953.55 a.u.

Question: What about the “MST Average” value (IF2; IF2 5.00 µM) of the same molecule?
Answer: 958.05 a.u.

Question: And the “MST Replicates” value (IF2; IF2 5.00 µM)?
Answer: 952.00 a.u. and 959.98 a.u. and 962.17 a.u.

Question: What about the “MST Average” value (IF2; IF2 10.00 µM) of the same molecule?
Answer: 963.39 a.u.

Question: What about the “MST Replicates” value (IF2; IF2 10.00 µM) of the same molecule?
Answer: 958.44 a.u. and 964.79 a.u. and 966.94 a.u.

Question: What about the “MST Average” value (IF2; IF2 20.00 µM) of the same molecule?
Answer: 974.27 a.u.

Question: What about the “MST Replicates” value (IF2; IF2 20.00 µM) of the same molecule?
Answer: 972.33 a.u. and 976.56 a.u. and 973.92 a.u.

Question: What about the “MST Average” value (IF2; IF2 40.00 µM) of the same molecule?
Answer: 980.83 a.u.

Question: And the “MST Replicates” value (IF2; IF2 40.00 µM)?
Answer: 982.65 a.u. and 981.22 a.u. and 978.62 a.u.

B1: mTufA: TufA mRNA with full-length 5′ UTR, in vitro transcribed, codes for EF-Tu (nucleic acid)
chain: GGUUCUAUCGCCUUUAAAGAAGGCUUUAAGAAAGCGAAACCAGUUCUGCUUGAGCCGAUCAUGAAGGUUGAAGUAGAAACUCCGGAAGAGAACACCGGUGACGUUAUCGGUGACUUGAGCCGUCGUCGUGGUAUGCUCAAAGGUCAGGAAUCUGAAGUUACUGGCGUUAAGAUCCACGCUGAAGUACCGCUGUCUGAAAUGUUCGGAUACGCAACUCAGCUGCGUUCUCUGACCAAAGGUCGUGCAUCAUACACUAUGGAAUUCCUGAAGUAUGAUGAAGCGCCGAGUAACGUUGCUCAGGCCGUAAUUGAAGCCCGUGGUAAAUAAGCCUAAGGGUUAAUACCAAAGUCCCGUGCUCUCUCCUGAAGGGGAGAGCACUAUAGUAAGGAAUAUAGCCGUGUCUAAAGAAAAAUUUGAACG
Question: B1 was tested. Which ppGpp tolerance (30S IC; 30S ICs with 4-fold excess of ppGpp (0.2 mM) over GTP vs without alarmone) did it give?
Answer: up to 25%
